Assay results: the NIST ThermoML archive (doi:10.1021/je7007654)
± gives the expanded uncertainty stated by the source.

Assays:
[1] = 101 kPa, Liquid; for viscosity: Capillary tube (Ostwald / Ubbelohde) method; for speed of sound: Sing-around technique in a fixed-path interferometer
[2] = xn = mol fraction of the nth substance listed; settings: 101 kPa, Liquid, x1 = 1; for viscosity: Capillary tube (Ostwald / Ubbelohde) method; for speed of sound: Sing-around technique in a fixed-path interferometer
[3] = 298.15 K, Vibrating tube method
[4] = 303.15 K, Vibrating tube method
[5] = 308.15 K, Vibrating tube method

Row | Structure (SMILES) | viscosity ([1]; 298.15 K) [mPa·s] | speed of sound ([1]; 298.15 K) [m/s] | viscosity ([1]; 303.15 K) [mPa·s] | speed of sound ([1]; 303.15 K) [m/s] | viscosity ([1]; 308.15 K) [mPa·s] | speed of sound ([1]; 308.15 K) [m/s] | mass density ([1]; 298.15 K) [kg/m3] | mass density ([1]; 303.15 K) [kg/m3] | mass density ([1]; 308.15 K) [kg/m3] | viscosity ([2]; 298.15 K) [mPa·s] | speed of sound ([2]; 298.15 K) [m/s] | viscosity ([2]; 303.15 K) [mPa·s] | speed of sound ([2]; 303.15 K) [m/s] | viscosity ([2]; 308.15 K) [mPa·s] | speed of sound ([2]; 308.15 K) [m/s] | further results
1 | CC(C)CCCC(C)CCCC(C)CCCCC(C)CCCC(C)CCCC(C)C (stereo not given) [2,6,10,15,19,23-hexamethyltetracosane] | 28.26 ± 0.18 | 1381.9 ± 1.2 | 22.09 ± 0.14 | 1364.1 ± 1.2 | 17.77 ± 0.12 | 1346.5 ± 1.2 | – | – | – | – | – | – | – | – | – | mass density [1, 3]: 805.122 ± 0.23 kg/m3; mass density [1, 4]: 801.912 ± 0.24 kg/m3; mass density [1, 5]: 798.709 ± 0.24 kg/m3
2 | CCCCO [butan-1-ol] | 2.573 ± 0.016 | 1240.5 ± 0.8 | 2.275 ± 0.014 | 1226.5 ± 0.8 | 1.981 ± 0.013 | 1209.8 ± 0.8 | 805.907 ± 0.67 | 803.155 ± 0.68 | 799.249 ± 0.69 | – | – | – | – | – | – | –
3 | CCCCO [butan-1-ol] + CC(C)CCCC(C)CCCC(C)CCCCC(C)CCCC(C)CCCC(C)C | – | – | – | – | – | – | – | – | – | 2.573 ± 0.016 | 1240.5 ± 0.8 | 2.275 ± 0.014 | 1226.5 ± 0.8 | 1.981 ± 0.013 | 1209.8 ± 0.8 | mass density [2, 3]: 805.907 ± 0.14 kg/m3; mass density [2, 4]: 803.155 ± 0.14 kg/m3; mass density [2, 5]: 799.249 ± 0.14 kg/m3
4 | CCCCO [butan-1-ol] + CCCCCCCCCCCCCCCC | – | – | – | – | – | – | – | – | – | 2.573 ± 0.016 | 1240.5 ± 0.8 | 2.275 ± 0.014 | 1226.5 ± 0.8 | 1.981 ± 0.013 | 1209.8 ± 0.8 | mass density ([2]; 298.15 K): 805.907 ± 0.67 kg/m3; mass density ([2]; 303.15 K): 803.155 ± 0.68 kg/m3; mass density ([2]; 308.15 K): 799.249 ± 0.69 kg/m3
5 | CCCCCCCCCCCCCCCC [hexadecane] | 3.041 ± 0.023 | 1338.6 ± 1.2 | 2.706 ± 0.02 | 1320 ± 1.2 | 2.409 ± 0.018 | 1301.7 ± 1.2 | 770.456 ± 0.84 | 766.981 ± 0.85 | 763.52 ± 0.86 | – | – | – | – | – | – | –
